The test system of assay [1] is U87-MG cells. In words: MTT metabolic activity / cell viability. The assay is classed as cell-based, human. As to the method: Normal human astrocytes (NHAs; Lonza, Walkersville, MD, USA) were grown and maintained in monolayer cultures in Dulbecco’s modified Eagle’s medium (DMEM; Sigma) supplemented with 10% fetal bovine serum (Euroclone, Pero, MI, Italy), 1% penicillin/streptomycin (Euroclone), 2 mM L-glutamine (Euroclone), and 20 mM Hepes (Invitrogen, Carlsbad, CA, USA). The U87-MG human glioblastoma cells (U87-MG cells; American Type Culture Collection, Manassas, VA, USA) were grown and maintained in monolayer cultures in DMEM supplemented with 10% fetal bovine serum, 1% penicillin/streptomycin, 4 mM L-glutamine, and 1% non-essential amino acids (Sigma).
Cell viability was determined using the 3-(4,5-dimethylthiazolyl-2)-2,5-diphenyltetrazolium bromide (MTT) assay, as according to Mosmann. This assay measures the conversion of MTT to its insoluble formazan by the dehydrogenase enzymes of the intact mitochondria of living cells. […]; Nunclon; Nunc, Naperville, IL, USA) and incubated for 16 h at 37 °C for attachment. […] The amount of formazan, which is proportional to the metabolic activity of cells, was quantified spectrophotometrically at 570 nm (reference filter wavelength, 690 nm) using a microplate reader (Synergy MX; BioTek, Winooski, VT, USA). The metabolic activity of the cells was determined by comparing the optical densities of the CCP-treated cells with those of the negative control. […]

Assay [2] has as its system U87-MG cells. Briefly: Cell morphology, light microscopy (phase contrast). Format: cell-based, human.

*1 amine or outer side, *2 acyl side, *3 side chain or, on linkers, in order; H or OH if unused. Where a SMILES comes first, the peptide text is derived from it. Bridges are numbered along the chain shown (N, C = ends). [ ]: non-standard residue; d: D form. Adda = CO[C@@H](Cc1ccccc1)[C@@H](C)/C=C(C)/C=C/[C@H](N[*:1])[C@H](C)C(=O)[*:2]; dAsp(3S-Me) = C[C@H](C(=O)[*:3])[C@@H](N[*:1])C(=O)[*:2]; d(γGlu) = O=C(O)[C@@H](CCC(=O)[*:2])N[*:1]; NMeDha = C=C(NC)C(=O)O

On to `C=C1C(=O)N[C@H](C)C(=O)N[C@@H](CC(C)C)C(=O)N[C@@H](C(=O)O)[C@H](C)C(=O)N[C@@H](CCCNC(=N)N)C(=O)N[C@@H](/C=C/C(C)=C/[C@H](C)[C@H](Cc2ccccc2)OC)[C@H](C)C(=O)N[C@@H](C(=O)O)CCC(=O)N1C` [MC-LR, Microcystin-LR, reference compound] (R[Adda][d(γGlu)][NMeDha][dA]L[dAsp(3S-Me)]-OH; lactam N-7), for which, in the assay on U87-MG cells [1], the “mean decrease in viability” value was determined as 15% and the “viability vs control” value is recorded as “not significantly changed”. Further, in the assay with U87-MG cells [2], the “morphological changes under light microscopy” value was “loss of astrocytic domain organization, but also in a reduction in cell numbers”.
